The test system of data set [1] is platelet aggregation. The data set can be described thus: Activity of inhibiting platelet aggregation (collagen-induced). Format: cell-based, male Hartley guinea pig. Particulars: Cavia porcellus, 2 min, read-out: ED50 (inhibition of platelet aggregation). The protocol: The citrated blood was centrifuged at a speed of 1,000 rpm for 10 minutes. The supernatant was collected to obtain a platelet-rich plasma. Separately, it was contrifuged at a speed of 3,000 rpm for 15 minutes, and the supernatant was collected to obtain a platelet-poor plasma. […] The platelet-rich plasma (250 μl) was placed in a cuvet, and preliminarily heated at 37° C. for 2 minutes, and then while stirring at a speed of 1,000 rpm, 31 μl of a test solution was added. The mixture was incubated for 2 minutes with stirring, and then 31 μl of a collagen solution was added, and the maximum aggregation rate of platelet was measured. The amount of the collagen applied was adjusted to the minimum effective amount which induced irreversible platelet aggregation. This amount was determined for each experiment. The percent inhibition of the test solution-applied group was determined in accordance with the following equation. From the percent inhibition, the ED50 value of the test compounds was calculated in accordance with the Litchfield-Wilcoxon method. Each test compound was dissolved in distilled water as a sodium salt.

In data set [2] the test system is digestive organs. As to conditions: known agents, statement in words; cited from earlier work.
For data set [3], the system named is left hind paw edema (carrageenin). The data set can be described thus: Anti-inflammatory activity: carrageenin-induced left hind paw edema. The format is in vivo, male Wistar rats. As to conditions: Rattus norvegicus, po, p.o., 1 h before carrageenin, measured 3 h later, read-out: Percent inhibition (edema). The method, then:
Male Wistar rats weighing 120 to 150 g which had been fasted for 24 hours were used in groups each consisting of 5 rats. In each group, the volumes of the left hind paw were measured by a volume differential meter (made by Ugo Basile Company), and each of the test compounds was suspended in an aqueous solution of 0.5% of carboxymethyl cellulose and 2.0% of Tween 80, and administered orally through a tube. After one hour from the administration, 0.1 ml of a 1% suspension of carrageenin in distilled water was subcutaneously injected into the plantar tissues of the left hind paw. Three hours later, the volumes of the left hind paw were again measured. The increase in volume of the left hind paw of each rat in each group (the volume of edema) was measured.
In general terms: Carrageenan injected into the paw causes an acute inflammation.

For data set [4], the system named is writhings (acetic acid) in the mice. As to the kind of experiment: Analgesic activity: acetic acid writhing test. Format: in vivo, male mice (ddY). As to conditions: Mus musculus, po; p.o. 1 h before 0.6% acetic acid i.p.; parentheses show 95% confidence limits; read-out: ED50 (analgesic, writhing inhibition). The protocol:
Male mice (ddY) weighing 18 to 22 g were used in groups each consisting of 10 mice. Each of the compounds was suspended in an aqueous solution of 0.5% of carboxymethyl cellulose and 2.0% of Tween 80, and administered orally through a tube. After one hour from the administration, 0.6% acetic acid was administered intraperitoneally in an amount of 0.1 ml per 10 g of body weight, and the number of writhings which occurred in the mice during a period of 20 minutes after the administration was measured. The percent inhibition was calculated from the following equation, and the ED50 values of the test compounds were calculated from the percent inhibition in accordance with the method of Litchfield-Wilcoxon.
A general note: Writhing tests count abdominal constrictions after an irritant is injected.

In data set [5] the test system is stomach mucosal membrane. As to the kind of experiment: Ulcerogenic activity: gastric ulceration. Format: in vivo, male Wistar rats. As to conditions: p.o., 4 h. The protocol:
Each of the test compounds was orally administered by the same way as in the test on anti-inflammatory activity to male Wistar rats weighing 120 to 150 g which had been fasted for 24 hours. Four hours later, they were killed with ether.

For data set [6], the target named is T1, microsomes of bovine seminal vesicle (a prostaglandin synthesizing enzyme) (Bos taurus, UniProt O62664).
T1 construct: a microsome fraction prepared from bovine seminal vesicle; from tissue; host or cells: bovine seminal vesicle, lyophilized microsome fraction
T1 sequence (O62664 25-600): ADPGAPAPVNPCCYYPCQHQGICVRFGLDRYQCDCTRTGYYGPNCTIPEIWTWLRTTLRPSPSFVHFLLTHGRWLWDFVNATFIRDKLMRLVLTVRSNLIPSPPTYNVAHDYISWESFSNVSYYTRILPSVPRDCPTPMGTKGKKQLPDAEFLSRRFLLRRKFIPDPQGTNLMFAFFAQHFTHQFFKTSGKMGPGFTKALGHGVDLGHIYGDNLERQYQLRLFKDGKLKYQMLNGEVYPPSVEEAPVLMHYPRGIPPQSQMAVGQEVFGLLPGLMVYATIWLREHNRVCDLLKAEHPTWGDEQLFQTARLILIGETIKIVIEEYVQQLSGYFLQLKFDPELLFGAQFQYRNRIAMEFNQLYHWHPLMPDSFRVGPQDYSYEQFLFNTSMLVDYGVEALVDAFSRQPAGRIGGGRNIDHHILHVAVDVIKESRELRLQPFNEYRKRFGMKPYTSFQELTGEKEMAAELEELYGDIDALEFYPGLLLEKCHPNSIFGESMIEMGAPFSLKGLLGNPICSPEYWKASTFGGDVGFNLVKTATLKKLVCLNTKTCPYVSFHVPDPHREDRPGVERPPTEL
The data set can be described thus: Activity of inhibiting prostaglandin synthesis (prostaglandin E2 formed). Format: biochemical. Particulars: 37° C., 5 minutes, pH 8.0, 50 μM arachidonic acid; dissolved as a sodium salt; read-out: ED50 (inhibition of prostaglandin synthesis). The method, then:
The activity of inhibiting prostaglandin synthesis was measured by adding a test compound, i.e. a substance having the activity of inhibiting prostaglandin synthesis, to a prostaglandin synthesizing reaction system shown below, and quantitatively determining to what extent synthesis of prostaglandin was inhibited.
100 mM tris-HCl buffer (pH=8.0),
0.0125 μCi/ml (14c)-arachidonic acid,
1 mg/ml, as protein, of microsomes of bovine seminal vesicle (a prostaglandin synthesizing enzyme obtained by lyophylizing a microsome fraction prepared from bovine seminal vesicle).
The test compound was added to the reaction system to adjust the total amount to 1 ml. As a control, 1 ml of the above reaction system without addition of the test compound was provided. Each of these was incubated with shaking at 37° C. for 5 minutes, and 0.5 ml of 0.3 M citric acid was added to stop the reaction. The prostaglandin formed was extracted with ethyl acetate, fractionated by thin-layer chromatography. The radioactivity of each fraction was measured by a liquid scintillation counter. The amount of prostaglandin E2 formed in the group to which the test compound had been applied was measured, and the percent inhibition was calculated in accordance with the following equation. From the percent inhibition, the ED50 value of the test compounds was calculated in accordance with the Litchfield-Wilcoxon method. […]

Data set [7] can be described thus: Toxicity test (LD50). As to conditions: mouse, in vivo; oral, observed for 1 week; parentheses show 95% confidence limits. The method, then:
Each of the test compounds was suspended in a physiological saline solution having dissolved therein 2% of Tween 80, and orally administered through a tube to groups of ddY mice (male: 19 to 22 g) each group consisting of 6 mice. The mice were then observed for 1 week. The LD50 values were calculated from the lethality in accordance with the method of Litchfield-Wilcoxon.

The conditions of data set [8]: reported in J. Med. Chem. 1978, 21, 582-585; cited from earlier work.

Read-outs that look alike come from different tables or passages of the source.

Take `CC(=O)Oc1ccccc1C(=O)O` [Aspirin, reference compound]: the IC50 in data set [1] (Platelet) came out at 15.8 µM. Further, the “troubles in the digestive organs” value in data set [2] is “fairly heavy troubles in the digestive organs”.

Take `O=C(O)Cc1cccc2c(-c3ccc(Cl)cc3)nccc12` [A, 1-(4-chlorophenyl)isoquinoline-5-acetic acid]: the inhibition in vivo at 0.3 mg/kg in data set [3] (0.3 mg/kg) was determined as 22.7 ± 6.1%. Moreover, the inhibition in vivo at 1 mg/kg in data set [3] (1 mg/kg) stood at 27.3 ± 7.4%. The inhibition in vivo at 3 mg/kg in data set [3] (3 mg/kg) is 44.6 ± 5.8%. Also, in data set [4], the ED50 was 1.4 mg/kg. The “Gastric ulceration: bleeding at the mucosal membrane” value is 0/10 in data set [5] (10 mg/kg) and 0/5 in data set [5] (30 mg/kg). For the same compound, the results for the “Gastric ulceration: damage beneath the mucosal membrane” value in data set [5] (10 mg/kg) and in data set [5] (30 mg/kg) were 0/10 and 0/5, respectively. In addition, the IC50 in data set [6] is 0.82 µM; in data set [1] (collagen-induced, platelet-rich plasma, dissolved as a sodium salt, parentheses show 95% confidence limits), 1.9 µM. Further, the LD50 at 168 h in data set [7] is 182 mg/kg.

As for `NC(=O)Cc1cc2ccccc2c(-c2ccc(Cl)cc2)n1` [1-(4-chlorophenyl)-3-carbamoylmethyl isoquinoline], the “anti-inflammatory and analgesic activities” value in data set [8] was “has anti-inflammatory and analgesic activities”.

`CCCCC1C(=O)N(c2ccccc2)N(c2ccccc2)C1=O` [Phenylbutazone, reference compound]: in data set [4], the ED50 came out at 109 mg/kg. Besides, in data set [6], the IC50 came out at 26.1 µM. The “troubles in the digestive organs” value in data set [2] is reported as “fairly heavy troubles in the digestive organs”.

As usually defined, the ED50 is the dose at which the effect has come halfway, by size or by number of responders. A word on the LD50: it is the dose expected to kill half of the subjects tested.
